Results on 30 molecules are retold here after patent US11639353B2, “Cyclobutanes- and azetidine-containing mono and spirocyclic compounds as αV integrin inhibitors” (BRISTOL-MYERS SQUIBB COMPANY, priority 2016, dated 2023).

The target in the assay is T1, human αVβ6 (Homo sapiens, UniProt P06756+P18564).
T1 construct: purchased R & D systems 3817-AV
Nature of the assay: human αVβ6 HTRF binding assay. Particulars: alternatively SPA-based assay. The essentials:
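Biotinylated recombinant human αVβ6 (1.25 nM final) incubated with FITC-fibronectin (5 nM final) 1 h at RT, then streptavidin-terbium (0.625 nM final) added and left overnight at RT in the dark before HTRF reading. Buffer: 20 mM Tris pH 7.4, 1 mM MgCl2, 1 mM MnCl2, 0.01% Tween 20, 0.01% BSA.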
(In general: Time-resolved FRET reads energy transfer from a long-lived donor to a nearby acceptor.)

T1 sequence (P06756 31-992 limits assumed): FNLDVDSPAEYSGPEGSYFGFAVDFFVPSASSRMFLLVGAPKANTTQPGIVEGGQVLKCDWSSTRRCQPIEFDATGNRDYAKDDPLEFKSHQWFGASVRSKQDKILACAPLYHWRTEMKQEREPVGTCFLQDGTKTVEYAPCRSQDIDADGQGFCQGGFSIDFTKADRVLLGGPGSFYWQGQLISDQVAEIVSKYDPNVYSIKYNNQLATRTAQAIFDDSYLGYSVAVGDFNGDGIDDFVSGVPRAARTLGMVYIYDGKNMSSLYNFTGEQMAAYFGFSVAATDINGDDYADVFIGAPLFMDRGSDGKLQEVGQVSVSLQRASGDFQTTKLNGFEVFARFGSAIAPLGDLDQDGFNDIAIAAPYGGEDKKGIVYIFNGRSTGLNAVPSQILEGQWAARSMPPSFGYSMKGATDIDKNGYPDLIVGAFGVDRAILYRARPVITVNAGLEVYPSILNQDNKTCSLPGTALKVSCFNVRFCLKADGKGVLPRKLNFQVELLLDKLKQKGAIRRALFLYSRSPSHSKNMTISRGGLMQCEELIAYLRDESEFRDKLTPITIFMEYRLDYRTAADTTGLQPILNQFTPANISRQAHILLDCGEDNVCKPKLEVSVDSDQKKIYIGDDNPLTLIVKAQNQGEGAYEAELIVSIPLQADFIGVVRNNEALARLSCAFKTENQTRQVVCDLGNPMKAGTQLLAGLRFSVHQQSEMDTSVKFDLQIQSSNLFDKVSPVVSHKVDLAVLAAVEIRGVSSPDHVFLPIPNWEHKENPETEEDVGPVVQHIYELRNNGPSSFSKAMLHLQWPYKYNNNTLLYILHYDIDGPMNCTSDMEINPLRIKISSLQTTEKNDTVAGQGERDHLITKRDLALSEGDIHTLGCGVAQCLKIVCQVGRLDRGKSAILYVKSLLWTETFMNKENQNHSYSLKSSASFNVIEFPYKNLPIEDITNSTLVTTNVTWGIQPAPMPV
T1 sequence (P18564 22-707 limits assumed): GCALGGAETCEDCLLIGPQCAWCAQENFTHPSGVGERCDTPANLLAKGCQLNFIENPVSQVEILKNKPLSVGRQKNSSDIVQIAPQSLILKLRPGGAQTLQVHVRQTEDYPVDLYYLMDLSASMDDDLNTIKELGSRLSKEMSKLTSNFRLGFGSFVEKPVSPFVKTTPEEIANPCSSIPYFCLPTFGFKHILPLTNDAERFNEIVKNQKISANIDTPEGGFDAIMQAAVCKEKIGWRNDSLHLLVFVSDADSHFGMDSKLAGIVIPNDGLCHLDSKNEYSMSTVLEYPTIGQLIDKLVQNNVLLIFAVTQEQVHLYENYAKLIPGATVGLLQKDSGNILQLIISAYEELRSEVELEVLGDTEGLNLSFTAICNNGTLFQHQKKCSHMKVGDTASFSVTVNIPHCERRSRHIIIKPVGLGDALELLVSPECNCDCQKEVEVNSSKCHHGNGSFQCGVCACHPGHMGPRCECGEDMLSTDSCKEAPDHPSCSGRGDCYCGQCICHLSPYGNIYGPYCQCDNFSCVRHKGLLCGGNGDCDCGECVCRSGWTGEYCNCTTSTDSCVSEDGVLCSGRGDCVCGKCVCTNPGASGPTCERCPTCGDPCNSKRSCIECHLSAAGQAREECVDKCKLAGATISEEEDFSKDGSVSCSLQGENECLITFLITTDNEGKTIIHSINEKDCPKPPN

A word on the IC50: it is the concentration that inhibits the measured activity by half. Higher therefore signals weaker potency. As for `O=C(O)C[C@@H](c1cc(F)cc(F)c1)N1CC(F)(CCCCc2ccc3c(n2)NCCC3)C1` [Example 162, (S)-3-(3,5-difluorophenyl)-3-(3-fluoro-3-(4-(5,6,7,8-tetrahydro-1,8-naphthyridin-2-yl)butyl)azetidin-1-yl)propanoic acid], the IC50 came out at 2 nM.

`COc1ccc([C@H](CC(=O)O)N2CC(F)(CCCCc3ccc4c(n3)NCCC4)C2)cn1` [Example 163] registered a half-inhibitory concentration (IC50) of 2.4 nM.

In turn, `O=C(O)C[C@@H](c1ccc(F)c(F)c1)N1CC(F)(CCCCc2ccc3c(n2)NCCC3)C1` [Example 164] gave a half-inhibitory concentration (IC50) of 2.6 nM.

`COc1ccc([C@H](CC(=O)O)N2CC(F)(CCCCc3ccc4c(n3)NCCC4)C2)cc1F` [Example 165] gave a half-maximal inhibitory concentration (IC50) of 2.5 nM.

Molecule `O=C(O)C[C@@H](c1cnc2ccccc2c1)N1CC(F)(CCCCc2ccc3c(n2)NCCC3)C1` [Example 166] registered an IC50 of 2.2 nM.

`Cc1ncc([C@H](CC(=O)O)N2CC(F)(CCCCc3ccc4c(n3)NCCC4)C2)cn1` [Example 167] came in with a half-maximal inhibitory concentration (IC50) of 3.3 nM.

In the case of `COc1ccc([C@H](CC(=O)O)N2CC(CCCc3ccc4c(n3)NCCC4)C2)cc1F` [Example 168, (S)-3-(3-Fluoro-4-methoxyphenyl)-3-(3-(3-(5,6,7,8-tetrahydro-1,8-naphthyridin-2-yl)propyl)azetidin-1-yl)propanoic acid], the IC50 worked out at 2 nM.

The molecule `COc1ccc([C@H](CC(=O)O)N2CC(CCCc3ccc4c(n3)NCCC4)C2)cn1` [Example 169] showed an IC50 of 4 nM.

In turn, `O=C(N[C@@H](CC(=O)N1CC(CCc2ccc3c(n2)NCCC3)C1)C(=O)O)OCC1CCC1` [Example 174, (S)-2-(((cyclobutylmethoxy)carbonyl)amino)-4-oxo-4-(3-(2-(5,6,7,8-tetrahydro-1,8-naphthyridin-2-yl)ethyl)azetidin-1-yl)butanoic acid] showed a half-maximal inhibitory concentration (IC50) of 68 nM.

Regarding `CCCOC(=O)N[C@@H](CC(=O)N1CC(CCc2ccc3c(n2)NCCC3)C1)C(=O)O` [Example 175], the IC50 was found to be 735 nM.

Molecule `O=C(N[C@@H](CC(=O)N1CC(CCc2ccc3c(n2)NCCC3)C1)C(=O)O)OCc1cccc(F)c1` [Example 176] displayed a half-maximal inhibitory concentration (IC50) of 294 nM.

`COc1ccc(C(NC(=O)C2CC(CCc3ccc4c(n3)NCCC4)C2)C(C)(C)C(=O)O)cn1` (stereo not drawn) [Example 191] showed an IC50 of 4300 nM.

With `COc1ccc(C(NC(=O)C2CC(CCc3ccc4c(n3)NCCC4)C2)C(C)(C)C(=O)O)cn1` (stereo not drawn) [Example 192], the IC50 is 4400 nM.

The molecule `CCOC(=O)[C@H](CNC(=O)[C@H]1C[C@@H](Cc2ccc3c(n2)NCCC3)C1)NC(=O)OCc1ccccc1` [Example 195, Ethyl (S)-2-(((benzyloxy)carbonyl)amino)-3-(cis-3-((5,6,7,8-tetrahydro-1,8-naphthyridin-2-yl)methyl)cyclobutane-1-carboxamido)propanoate] registered a concentration for half-maximal inhibition (IC50) of 13 nM.

For the molecule `O=C(N[C@@H](CNC(=O)[C@H]1C[C@@H](Cc2ccc3c(n2)NCCC3)C1)C(=O)O)OCc1ccccc1` [Example 196, (S)-2-(((Benzyloxy)carbonyl)amino)-3-(cis-3-((5,6,7,8-tetrahydro-1,8-naphthyridin-2-yl)methyl)cyclobutane-1-carboxamido)propanoic acid], the IC50 turned out to be 5.1 nM.

Molecule `CCCOC(=O)N[C@@H](CNC(=O)[C@H]1C[C@@H](Cc2ccc3c(n2)NCCC3)C1)C(=O)O` [Example 198] came in with a 50% inhibitory concentration (IC50) of 1.9 nM.

As to `O=C(N[C@@H](CNC(=O)[C@H]1C[C@@H](Cc2ccc3c(n2)NCCC3)C1)C(=O)O)OCC1CCC1` [Example 199], the IC50 was 2.2 nM.

Molecule `Cc1cc(C)c(S(=O)(=O)N[C@@H](CNC(=O)[C@H]2C[C@@H](Cc3ccc4c(n3)NCCC4)C2)C(=O)O)c(C)c1` [Example 200, (S)-3-(cis-3-((5,6,7,8-Tetrahydro-1,8-naphthyridin-2-yl)methyl)-cyclobutane-1-carboxamido)-2-((2,4,6-trimethylphenyl)sulfonamido)-propanoic acid] registered a concentration for half-maximal inhibition (IC50) of 3.8 nM.

Consider `COc1ccc([C@H](CC(=O)O)NC(=O)[C@H]2C[C@@H](Cc3ccc4c(n3)NCCC4)C2)cc1F` [Example 201, (S)-3-(3-fluoro-4-methoxyphenyl)-3-((1s,3R)-3-((5,6,7,8-tetrahydro-1,8-naphthyridin-2-yl)methyl)cyclobutane-1-carboxamido)propanoic acid], for which the half-inhibitory concentration (IC50) was 3.2 nM.

As to `COc1ccc(C(CC(=O)O)N2CC3(CC(CCc4ccc5c(n4)NCCC5)C3)C2)cc1F` (stereo not drawn) [Example 204, 3-(3-fluoro-4-methoxyphenyl)-3-(6-(2-(5,6,7,8-tetrahydro-1,8-naphthyridin-2-yl)ethyl)-2-azaspiro[3.3]heptan-2-yl)propanoic acid], the IC50 amounted to 2.2 nM.

Molecule `COc1ccc(C(CC(=O)O)N2CC3(CC(CCc4ccc5c(n4)NCCC5)C3)C2)cn1` (stereo not drawn) [Example 205] displayed an IC50 of 3.7 nM.

Take `Cc1ncc(C(CC(=O)O)N2CC3(CC(CCc4ccc5c(n4)NCCC5)C3)C2)cn1` (stereo not drawn) [Example 206]: the concentration for half-maximal inhibition (IC50) worked out at 3.3 nM.

`Cc1cc(C)n(-c2cccc(C(CC(=O)O)N3CC4(CC(CCc5ccc6c(n5)NCCC6)C4)C3)c2)n1` (stereo not drawn) [Example 207] displayed an IC50 of 2.8 nM.

As to `COc1ccc(C(CC(=O)O)N2CC3(CC(Cc4ccc5c(n4)NCCC5)C3)C2)cn1` (stereo not drawn) [Example 208, 3-(6-methoxypyridin-3-yl)-3-(6-((5,6,7,8-tetrahydro-1,8-naphthyridin-2-yl)methyl)-2-azaspiro[3.3]heptan-2-yl)propanoic acid], the IC50 stood at 2.4 nM.

Take `Cc1ncc(C(CC(=O)O)N2CC3(CC(Cc4ccc5c(n4)NCCC5)C3)C2)cn1` (stereo not drawn) [Example 209, 3-(2-methylpyrimidin-5-yl)-3-(6-((5,6,7,8-tetrahydro-1,8-naphthyridin-2-yl)methyl)-2-azaspiro[3.3]heptan-2-yl)propanoic acid]: the 50% inhibitory concentration (IC50) is 6.8 nM.

On to `COc1ccc(C(CC(=O)O)N2CC3(CC(Cc4ccc5c(n4)NCCC5)C3)C2)cc1F` (stereo not drawn) [Example 210, 3-(3-fluoro-4-methoxyphenyl)-3-(6-((5,6,7,8-tetrahydro-1,8-naphthyridin-2-yl)methyl)-2-azaspiro[3.3]heptan-2-yl)propanoic acid], for which the IC50 was found to be 5.6 nM.

`Cc1cc(C)n(-c2cccc(C(CC(=O)O)N3CC4(CC(Cc5ccc6c(n5)NCCC6)C4)C3)c2)n1` (stereo not drawn) [Example 211, 3-(3-(3,5-dimethyl-1H-pyrazol-1-yl)phenyl)-3-(6-((5,6,7,8-tetrahydro-1,8-naphthyridin-2-yl)methyl)-2-azaspiro[3.3]heptan-2-yl)propanoic acid] gave an IC50 of 3.6 nM.

`Cc1ncc([C@@H](CC(=O)O)N2CC(COCCc3ccc4c(n3)NCCC4)C2)cn1` [example 128, (R)-3-(2-methylpyrimidin-5-yl)-3-(3-((2-(5,6,7,8-tetrahydro-1,8-naphthyridin-2-yl)ethoxy)methyl)azetidin-1-yl)propanoic acid]: the IC50 was determined as 38 nM.

As for `Cc1ncc([C@H](CC(=O)O)N2CC(COCCc3ccc4c(n3)NCCC4)C2)cn1` [example 129, (S)-3-(2-methylpyrimidin-5-yl)-3-(3-((2-(5,6,7,8-tetrahydro-1,8-naphthyridin-2-yl)ethoxy)methyl)azetidin-1-yl)propanoic acid], the 50% inhibitory concentration (IC50) turned out to be 3.2 nM.

In turn, `Cc1ncc([C@H](CC(=O)O)N2CC(OCCCc3ccc4c(n3)NCCC4)C2)cn1` [example 131, (S)-3-(2-methylpyrimidin-5-yl)-3-(3-(3-(5,6,7,8-tetrahydro-1,8-naphthyridin-2-yl)propoxy)azetidin-1-yl)propanoic acid] gave a half-maximal inhibitory concentration (IC50) of 7.5 nM.
